Test results from patent US12365687B2 (Hoffmann-La Roche Inc., priority 2021, dated 2025).

Assays:
[1] = target: human GABAA α1β3γ2 receptor (Homo sapiens (Human), UniProt P14867+P18507); assay: Radioligand binding assay for γ2-containing GABAA subtypes, [3H]Flumazenil competition (α1β3γ2); conditions: for γ2/γ1 Selectivity Ratio: Ki α1β3γ2 (nM)/Ki α2β2γ1 (nM); for LogSel: Log[Ki α1β3γ2 (nM)/Ki α2β2γ1 (nM)]
Description: The affinity of compounds at GABAA γ2 subunit-containing receptors was measured by competition for [^3H]Flumazenil (81.1 Ci/mmol; Roche) binding to HEK293F cells expressing human (transiently transfected) receptors of composition α1β3γ2.
Harvested pellets from HEK293F cells expressing the different GABAA γ2 receptor subtypes were resuspended in Mannitol Buffer pH 7.2-7.4 and processed as described above for the cells expressing the GABAA γ1 subunit-containing receptors.
Assays were incubated to equilibrium for 1 hour at 4° C. and harvested onto GF/C uni-filters (Packard) by filtration using a Packard harvester and washing with ice-cold wash buffer (50 mM Tris; pH 7.5). After anhydrousing, filter-retained radioactivity was detected by liquid scintillation counting. Ki values were calculated using Excel-Fit (Microsoft) and are the means of two determinations.

[2] = target: α2β2γ1 GABAA receptor subtype (Homo sapiens (Human), UniProt P47869+Q8N1C3); assay: Two-electrode voltage clamp electrophysiology in Xenopus oocytes expressing GABAA receptors (modulation of GABA EC20 current); assay type: cell-based; conditions: for Efficacy (GABA)%: % modulation of GABA EC20 = 100*(Fold increase-1), α2β2γ1 oocytes, compound at approx. 30-fold Ki; for Fold increase h-GABA-A α2β2γ1 oocyte @ 30-fold Ki: Xenopus oocytes expressing α2β2γ1, compound at approx. 30-fold its Ki α2β2γ1, GABA EC20 current; for potentiation of the GABA-induced current: α2β2γ1 GABAA receptor subtype expressing oocytes, GABA EC20
Description: Xenopus laevis oocytes at maturation stages V-VI were used for the expression of cloned mRNA encoding GABAA receptor subunits. Oocytes ready for RNA micro-injection were bought from Ecocyte, Castrop-Rauxel, Germany and stored in modified Barth's medium (composition in mM: NaCl 88, KCl 1, NaHCO3 2.4, HEPES 10, MgSO4 0.82, CaNO3 0.33, CaCl2 0.33, pH=7.5) at 20° C. until the experiment.
Oocytes were plated in 96-well plates for microinjection using the Roboinject automated instrument (MultiChannelSystems, Reutlingen, Germany). Approximately 50 nL of an aqueous solution containing the RNA transcripts for the subunits of the desired GABAA receptor subtype was injected into each oocyte. […] Oocytes were kept in modified Barth's medium (composition in mM: NaCl 88, KCl 1, NaHCO3 […], HEPES 10, MgSO4 0.82, CaNO3 0.33, CaCl2 0.33, pH=7.5) at 20° C. until the experiment.
Electrophysiological experiments were performed using the Roboocyte instrument (MultiChannelSystems, Reutlingen, Germany) on days 3 to 5 after the micro-injection of mRNA. During the experiment the oocytes were constantly superfused by a solution containing (in mM) NaCl 90, KCl 1, HEPES 5, MgCl2 1, CaCl2 1 (pH 7.4). Oocytes were impaled by two glass microelectrodes (resistance: 0.5-0.8 MΩ) which were filled with a solution containing KCl 1M+K-acetate 1.5 M and voltage-clamped to −80 mV. The recordings were performed at room temperature using the Roboocyte two-electrode voltage clamp system (Multichannelsystem). After an initial equilibration period of 1.5 min GABA was added for 1.5 min at a concentration evoking approximately 20% of a maximal current response (EC20). After another rest interval of 2.5 min GABA was again added evoking a response of similar amplitude and shape. […] Current traces were recorded at a digitization rate of 10 Hz during and shortly before and after the GABA application.
Each compound and concentration was tested on at least 3 oocytes. Different oocytes were used for different compound concentrations.
For the analysis, the digitized current traces of the first and second GABA response were superimposed and, if necessary, rescaled to equal maximal amplitudes. The ratio between the two responses during the time interval of test compound application was calculated point by point. The extremum of the resulting “ratio trace” was taken as the efficacy (“Fold increase”) of the compound expressed as “% modulation of GABA EC20” (100*(Fold increase-1)).

[3] = target: human GABAA α2β2γ1 receptor (Homo sapiens (Human), UniProt P47869+Q8N1C3); assay: Radioligand binding assay for γ1-containing GABAA subtypes, [3H]RO7239181 competition (α2β2γ1)
Description: (§1) The affinity of compounds at GABAA γ1 subunit-containing receptors was measured by competition for [^3H]RO7239181 (67.3 Ci/mmol; Roche) binding to membranes from HEK293F cells (ThermoFisher R79007) expressing human (transiently transfected) receptors of composition α5β2γ1, α2β2γ1, α1β2γ1.
(§2) Harvested pellets from HEK293F cells expressing the different GABAA receptor subtypes were resuspended in Mannitol Buffer pH 7.2-7.4 (Mannitol 0.29 M, Triethylamine 10 mM, Acetic acid 10 mM, EDTA 1 mM plus protease inhibitors (20 tablets Complete, Roche Diagnostics Cat. No. 05 056 489 001 per liter)), washed two times and then resuspended at 1:10 to 1:15 dilution in the same buffer. Cell disruption was performed by stirring the suspension in a Parr vessel #4637 at 435 psi for 15 minutes, and then the suspensions were centrifuged at 1000×g for 15 minutes at 4° C. (Beckman Avanti J-HC; rotor JS-4.2). The supernatant (S1) was transferred in a 2 l Schott flask and the pellet (P1) was resuspended with Mannitol Buffer up to 175 ml. The resuspended pellet was transferred into a 250 ml Corning centrifugal beaker and centrifuged at 1500×g for 10 minutes at 4° C. (Beckman Avanti J-HC; rotor JS-4.2). The supernatant (S1) was then transferred in the 2 l Schott flask and the pellet was discarded. The supernatants (S1) were centrifuged in 500 ml Beckman polypropylene centrifugal beaker at 15′000×g for 30 minutes at 4° C. (Beckman Avanti J-20 XP; rotor JLA-10.500). The pellet (P2) was resuspended with Mannitol Buffer 1:1 and frozen at −80° C. The supernatant (S2) was centrifuged in 100 ml Beckman polypropylene centrifugal tubes at 48000×g for 50 minutes at 4° C. (Beckman Avanti J-20 XP; rotor JA-18). The supernatant (S3) was discarded and the pellet (P3) was resuspended with 1:1 Mannitol Buffer. The P2 and P3 protein concentration was determined with the BIORAD Standard assay method with bovine serum albumin as standard and measured on the NANO-Drop 1000. The membrane suspension was aliquots (500 μl per tube) and stored at −80° C. until required.
(§3) Membrane homogenates were resuspended and polytronised (Polytron PT1200E Kinematica AG) in Potassium Phosphate 10 mM, KCl 100 mM binding buffer at pH 7.4 to a final assay concentration determined with a previous experiment.
(§4) Assays were incubated to equilibrium for 1 hour at 4° C. and then, membranes were filtered onto unifilter (96-well white microplate with bonded GF/C filters preincubated 20-50 minutes in 0.3% Polyethylenimine) with a Filtermate 196 harvester (Packard BioScience) and washed 4 times with cold Potassium Phosphate 10 mM pH 7.4, KCl 100 mM binding buffer. After anhydrousing, filter-retained radioactivity was detected by liquid scintillation counting. Ki values were calculated using Excel-Fit (Microsoft) and are the means of two determinations.

[4] = target: human GABAA α5β2γ1 receptor (Homo sapiens (Human), UniProt P31644+Q8N1C3); assay: Radioligand binding assay for γ1-containing GABAA subtypes, [3H]RO7239181 competition (α5β2γ1)
Description: as §1, §2, §3, §4

[5] = Ki h-GABAA α2β2γ1, [3H]RO7239181 competition binding, human GABAA α2β2γ1
[6] = Ki h-GABAA α2β2γ1, displacement of [3H]RO7239181, membranes of HEK293F cells expressing human receptors, means of two determinations
[7] = Ki h-GABAA α2β2γ1, Table 3, reference compounds

| SMILES | Ki [1] [nM] | γ2/γ1 Selectivity Ratio [1] | LogSel [1] | Efficacy (GABA)% [2] [%] | Fold increase h-GABA-A α2β2γ1 oocyte @ 30-fold Ki [2] | Ki [3, 5] [nM] | Ki [3, 6] [nM] | Ki [4] [nM] | LogSel ([1]; Table 3) | potentiation of the GABA-induced current [2] [%] | γ2/γ1 Selectivity Ratio ([1]; Table 3) | Ki [3, 7] [nM] |
| --- | --- | --- | --- | --- | --- | --- | --- | --- | --- | --- | --- | --- |
| C[C@@H]1N=C(c2c(F)cccc2F)c2c(ccc(C(F)(F)F)c2Cl)-n2nc(NC(=O)N3C4COCC3C4)nc21 (single isomer, unassigned) [Example 130] | 4190 | 114.5 | 2.06 | 116 | 2.16 | 36.6 | 36.6 | 6.9 | – | – | – | – |
| C[C@@H]1N=C(c2c(F)cccc2F)c2c(ccc(C(F)(F)F)c2Cl)-n2nc(NC(=O)N3C4CC3CS(=O)(=O)C4)nc21 (single isomer, unassigned) [Example 134] | 1480 | 76.7 | 1.88 | 101 | 2.01 | 19.3 | 19.3 | 2.36 | – | – | – | – |
| Cc1nnc2n1-c1ccc(Cl)cc1C(c1ccccc1)=NC2 [Alprazolam, reference compound] | – | – | – | – | – | – | – | – | −2.3 | – | – | – |
| COC1CN(C(=O)c2cn3c(n2)CN=C(c2c(F)cccc2F)c2c-3ccc(Cl)c2Cl)C1 [Example 2, (7,8-dichloro-6-(2,6-difluorophenyl)-4H-benzo[f]imidazo[1,2-a][1,4]diazepin-2-yl)(3-methoxyazetidin-1-yl)methanone] | 255 | 39.3 | 1.59 | 42 | 1.42 | 6.5 | 6.5 | 1.26 | – | – | – | – |
| Fc1cccc(F)c1C1=NCc2nc(C(F)F)cn2-c2ccc(Br)c(Cl)c21 [Example 3, 8-bromo-7-chloro-2-(difluoromethyl)-6-(2,6-difluorophenyl)-4H-benzo[f]imidazo[1,2-a][1,4]diazepine] | 455 | 15.0 | 1.18 | – | – | 30.2 | 30.2 | 1.28 | – | – | – | – |
| OCc1cn2c(n1)CN=C(c1c(F)cccc1F)c1c-2ccc(Br)c1Cl [Example 4, (8-bromo-7-chloro-6-(2,6-difluorophenyl)-4H-benzo[f]imidazo[1,2-a][1,4]diazepin-2-yl)methanol] | 216 | 24.4 | 1.39 | 105 | 2.05 | 8.8 | 8.8 | 1.14 | – | – | – | – |
| COCc1cn2c(n1)CN=C(c1c(F)cccc1F)c1c-2ccc(Cl)c1Cl [Example 5, 7,8-dichloro-6-(2,6-difluorophenyl)-2-(methoxymethyl)-4H-benzo[f]imidazo[1,2-a][1,4]diazepine] | 307 | 31.9 | 1.50 | 78 | 1.78 | 9.6 | 9.6 | 1.2 | – | – | – | – |
| C[C@@H]1N=C(c2c(F)cccc2F)c2c(ccc(C(F)(F)F)c2Cl)-n2nc(C(=O)N3CC(OC(F)F)C3)nc21 [Example 51, [3-(difluoromethoxy)azetidin-1-yl]-[(4S)-7-chloro-6-(2,6-difluorophenyl)-4-methyl-8-(trifluoromethyl)-4H-[1,2,4]triazolo[1,5-a][1,4]benzodiazepin-2-yl]methanone] | 1560 | 53.3 | 1.73 | – | – | – | – | – | – | – | – | – |
| C[C@@H]1N=C(c2ncccc2F)c2c(ccc(C(F)(F)F)c2Cl)-n2nc(C(=O)NCCF)nc21 [Example 152, (4S)-7-chloro-N-(2-fluoroethyl)-6-(3-fluoro-2-pyridyl)-4-methyl-8-(trifluoromethyl)-4H-[1,2,4]triazolo[1,5-a][1,4]benzodiazepine-2-carboxamide] | > 30000 | 333.7 | 2.52 | – | – | 89.9 | 89.9 | 20.4 | – | – | – | – |
| CN1C(=O)CN=C(c2ccccc2F)c2cc([N+](=O)[O-])ccc21 [Flunitrazepam, reference compound] | – | – | – | – | – | – | – | – | – | ~60 | – | – |
| Cc1ncc2n1-c1ccc(Cl)cc1C(c1ccccc1F)=NC2 [Midazolam, reference compound] | – | – | – | – | – | – | – | – | −2.2 | ~60 | – | – |
| CN(C)C(=O)c1nc2n(n1)-c1ccc(Cl)cc1C(c1ccccc1F)=NC2 [RE-A, reference compound] | 35.6 | – | – | – | – | – | – | – | – | – | 0.13 | 276 |
| CCOC(=O)c1nc2n(n1)-c1ccc(Cl)cc1C(c1ccccc1F)=NC2 [RE-B, reference compound] | 3.4 | – | – | – | – | – | – | – | – | – | 0.18 | 18.4 |
| Cc1nnc2n1-c1ccc(Cl)cc1C(c1ccccc1Cl)=NC2 [Triazolam, reference compound] | – | – | – | – | – | – | – | – | −1.5 | ~60 | – | – |
